Measurements as given in the supplement of paper PMC13380429.

Tests used:
Conditions in all cases: 72 h
Caco-2 [1] = test: cell viability relative to DMSO; higher = less toxic
Calu-3 [2] = test: as above
HepG2 [3] = test: as above
U2OS [4] = test: as above
Vero E6 [5] = test: as above
Caco-2 [6] = test: relative viability EC50 (midpoint between 100% and the lowest measured viability); higher = less toxic
Calu-3 [7] = test: as above
HepG2 [8] = test: as above
U2OS [9] = test: as above
Vero E6 [10] = test: as above
Caco-2 [11] = test: drug sensitivity score (DSS) for viability; higher = more toxic; extreme values may be limits of the assay
Calu-3 [12] = test: as above
HepG2 [13] = test: as above
U2OS [14] = test: as above
Vero E6 [15] = test: as above

Row | SMILES | cell viability (Caco-2 [1]; 1 nM) [%] | cell viability (Caco-2 [1]; 10 nM) [%] | cell viability (Caco-2 [1]; 100 nM) [%] | cell viability (Caco-2 [1]; 1000 nM) [%] | cell viability (Caco-2 [1]; 10000 nM) [%] | cell viability (Calu-3 [2]; 1 nM) [%] | cell viability (Calu-3 [2]; 10 nM) [%] | cell viability (Calu-3 [2]; 100 nM) [%] | cell viability (Calu-3 [2]; 1000 nM) [%] | cell viability (Calu-3 [2]; 10000 nM) [%] | cell viability (HepG2 [3]; 1 nM) [%] | cell viability (HepG2 [3]; 10 nM) [%] | cell viability (HepG2 [3]; 100 nM) [%] | cell viability (HepG2 [3]; 1000 nM) [%] | cell viability (HepG2 [3]; 10000 nM) [%] | cell viability (U2OS [4]; 1 nM) [%] | cell viability (U2OS [4]; 10 nM) [%] | cell viability (U2OS [4]; 100 nM) [%] | cell viability (U2OS [4]; 1000 nM) [%] | cell viability (U2OS [4]; 10000 nM) [%] | cell viability (Vero E6 [5]; 1 nM) [%] | cell viability (Vero E6 [5]; 10 nM) [%] | cell viability (Vero E6 [5]; 100 nM) [%] | cell viability (Vero E6 [5]; 1000 nM) [%] | cell viability (Vero E6 [5]; 10000 nM) [%] | relative viability EC50 (Caco-2 [6]) [µM] | relative viability EC50 (Calu-3 [7]) [µM] | relative viability EC50 (HepG2 [8]) [µM] | relative viability EC50 (U2OS [9]) [µM] | relative viability EC50 (Vero E6 [10]) [µM] | drug sensitivity score (Caco-2 [11]) | drug sensitivity score (Calu-3 [12]) | drug sensitivity score (HepG2 [13]) | drug sensitivity score (U2OS [14]) | drug sensitivity score (Vero E6 [15])
1 | O=C(OCCOCCO)c1ccccc1Nc1cccc(C(F)(F)F)c1 [etofenamate] | 98.1 | 91 | 92.4 | 90.8 | 96.1 | 108 | 95.6 | 95.8 | 82.5 | 96.3 | 96.2 | 105 | 92.4 | 101 | 104 | 102 | 95.2 | 98.7 | 100 | 96.3 | 100 | 103 | 103 | 89.3 | 81.7 | > 10 | > 10 | > 10 | > 10 | > 10 | 0 | 0.1 | 0 | 0 | 1.5
2 | CC(=O)Nc1c(I)c(C(=O)O)c(I)c(N(C)C(C)=O)c1I [metrizoic-acid] | 92 | 102 | 94 | 97.3 | 92.8 | 96.6 | 103 | 98.3 | 94.9 | 107 | 107 | 104 | 105 | 96.6 | 110 | 97.6 | 105 | 95.9 | 105 | 96.5 | 104 | 98.6 | 105 | 98.8 | 101 | > 10 | > 10 | > 10 | > 10 | > 10 | 0 | 0 | 0 | 0 | 0
3 | CC1CCN(CC[C@H]2CCCN2S(=O)(=O)c2cccc(O)c2)CC1 | 90.4 | 86.5 | 96.1 | 91.5 | 102 | 90.1 | 94.8 | 92.3 | 100 | 105 | 91.9 | 98.1 | 103 | 96.7 | 101 | 94.3 | 101 | 93.4 | 104 | 101 | 100 | 93.5 | 96.8 | 93.8 | 105 | > 10 | > 10 | > 10 | > 10 | > 10 | 0 | 0 | 0 | 0 | 0
4 | CC(C)(Oc1ccc(C(=O)c2ccc(Cl)cc2)cc1)C(=O)O [fenofibric-acid] | 92.4 | 106 | 91.9 | 96.2 | 105 | 90.5 | 94.5 | 101 | 102 | 98.9 | 91.3 | 96.6 | 90.9 | 94.9 | 90.8 | 103 | 100 | 97.5 | 100 | 95.5 | 102 | 102 | 101 | 95.4 | 97 | > 10 | > 10 | > 10 | > 10 | > 10 | 0 | 0 | 0 | 0 | 0
5 | O=C(Oc1ccc([N+](=O)[O-])cc1)N1CCN(Cc2cccc(Oc3ccccc3)c2)CC1 [JZL-195] | 107 | 94.7 | 86.7 | 93.7 | 95.4 | 102 | 104 | 91.5 | 103 | 93.5 | 91.8 | 99.5 | 103 | 99.2 | 82.4 | 98.6 | 100 | 97.4 | 100 | 94.6 | 97.3 | 103 | 104 | 92.9 | 99.7 | > 10 | > 10 | > 10 | > 10 | > 10 | 0 | 0 | 0.5 | 0 | 0
6 | O=C(O[C@@H]1Cc2c(O)cc(O)cc2O[C@@H]1c1cc(O)c(O)c(O)c1)c1cc(O)c(O)c(O)c1 [epigallocatechin-gallate-(-)] | 103 | 99.1 | 97.7 | 99.7 | 101 | 103 | 90.5 | 103 | 96.8 | 97.1 | 101 | 107 | 93.1 | 97.8 | 97.5 | 100 | 98.2 | 103 | 97 | 97.3 | 98.5 | 100 | 103 | 98.2 | 95.4 | > 10 | > 10 | > 10 | > 10 | > 10 | 0 | 0 | 0 | 0 | 0
7 | COC(=O)Nc1ccc(-c2nc(N3CCOCC3)c3cnn(C4CCN(Cc5cccnc5)CC4)c3n2)cc1 [WYE-687] | 93.6 | 93.9 | 88 | 47.8 | 21.6 | 100 | 95.5 | 79.2 | 37.2 | 20.4 | 97.5 | 111 | 92.8 | 54 | 17.6 | 104 | 97 | 100 | 74.2 | 19 | 94.2 | 95.9 | 89.3 | 71.3 | 37.6 | 0.496 | 0.271 | 0.818 | 1.36 | 0.925 | 11.5 | 14.2 | 10.1 | 8.2 | 6.9
8 | COc1ccc(CN2C(=O)C(=O)c3cc(OC(F)(F)F)ccc32)cc1 | 90.2 | 100 | 89.8 | 85.5 | 38.8 | 98.3 | 96.7 | 110 | 83 | 41.7 | 97.7 | 108 | 109 | 103 | 41.8 | 99 | 99.7 | 92.8 | 25.8 | 13.4 | 107 | 107 | 103 | 86 | 28.8 | 1.66 | 1.43 | 3.43 | 0.374 | 1.75 | 5.4 | 5.7 | 2.9 | 14.6 | 6.2
9 | O=C(Nc1cccc(Cl)c1)c1ccccn1 | 87.9 | 102 | 98 | 96.8 | 102 | 94.5 | 95.8 | 95.9 | 114 | 102 | 111 | 100 | 105 | 97.3 | 107 | 102 | 104 | 99.8 | 108 | 101 | 107 | 102 | 107 | 99.3 | 103 | > 10 | > 10 | > 10 | > 10 | > 10 | 0 | 0 | 0 | 0 | 0
10 | COc1ccc2[nH]c(I)c(CCNC(C)=O)c2c1 [2-iodomelatonin] | 98.5 | 106 | 94.6 | 104 | 96.2 | 99.5 | 100 | 103 | 92.7 | 94.8 | 105 | 98.6 | 113 | 96.5 | 105 | 95.3 | 103 | 94.9 | 97.9 | 102 | 94.6 | 93.1 | 92.4 | 94.9 | 108 | > 10 | > 10 | > 10 | > 10 | > 10 | 0 | 0 | 0 | 0 | 0
11 | CCN(CC)C(=O)/C(C#N)=C/c1cc(O)c(O)c([N+](=O)[O-])c1 [entacapone] | 93.7 | 98.4 | 95.5 | 96 | 93.2 | 92.3 | 86.9 | 94.7 | 98.5 | 101 | 98.3 | 84.1 | 102 | 92.2 | 100 | 96.8 | 102 | 98 | 98.9 | 99.7 | 100 | 99.2 | 93.2 | 96 | 100 | > 10 | > 10 | > 10 | > 10 | > 10 | 0 | 0 | 0 | 0 | 0
12 | Cc1c(N)c(=O)n(-c2ccccc2)n1C [ampyrone] | 103 | 92 | 100 | 96.7 | 95 | 138 | 99.9 | 98.6 | 96.4 | 98.6 | 96.5 | 110 | 105 | 111 | 106 | 97.6 | 94.3 | 100 | 95.8 | 102 | 101 | 104 | 99.2 | 95.4 | 90.5 | > 10 | > 10 | > 10 | > 10 | > 10 | 0 | 0 | 0 | 0 | 0
13 | CCS(=O)(=O)N1CCN(c2ccc(Nc3ncc(C(N)=O)c(NC4CC4)n3)cc2)CC1 | 99.6 | 95.4 | 91.9 | 86.8 | 99.1 | 92.1 | 111 | 110 | 116 | 128 | 97.6 | 94.3 | 97.3 | 76.3 | 79.1 | 95.9 | 103 | 96.4 | 89.8 | 27.4 | 97.4 | 94.8 | 99.5 | 85.6 | 89.6 | > 10 | > 10 | > 10 | 2.04 | > 10 | 0 | 0 | 4 | 5.7 | 0.3
